Values quoted from earlier work as cited in patent US7803402B2, “Pharmaceutical preparations” (priority 2002, dated 2010).

Legend:
[1] = cefixime in the circulation
[2] = in vivo

**Q.** Which “solubility in dehydrated alcohol” value (dehydrated alcohol) does the source give for `C=CC1=C(C(=O)O)N2C(=O)[C@@H](NC(=O)/C(=N\OCC(=O)O)c3csc(N)n3)[C@H]2SC1` [Cefixime] here?
**A.** sparingly soluble

**Q.** And the “solubility in ethyl acetate” value (ethyl acetate)?
**A.** practically insoluble

**Q.** What about the “solubility in methyl alcohol” value (methyl alcohol) of the same molecule?
**A.** freely soluble

**Q.** What about the solubility in water (water) of the same molecule?
**A.** slightly soluble

**Q.** What about the “bound to plasma proteins” value [1] of the same molecule?
**A.** About 65%

**Q.** And the “eliminated by nonrenal mechanisms” value [2]?
**A.** Up to 60%

**Q.** And the placental transfer [2]?
**A.** crosses the placenta

**Q.** What about the removal by dialysis [2] of the same molecule?
**A.** not substantially removed
